# Measurements from patent publication US7084163B2, “Heterocyclic carboxamides and their use as fungicides” (Bayer Cropscience S.A., priority 2001, dated 2006).
# How the values were obtained:
# [1] = system: Erisyphe graminis f. sp. tritici; experiment: In vivo test on Erisyphe graminis f. sp. tritici (powdery mildew of wheat), preventive spray; settings: Triticum aestivum; dose of 500 g/ha; wheat plants (Audace variety); contaminated 24 hours after treatment; grading 7 to 14 days after contamination vs control plants; read-out: good (at least 50%) or total protection
# Experimental: An aqueous suspension, at a concentration of 1.5%, of the active material tested is obtained by grinding it finely in a formulation of concentrated suspension type. This aqueous suspension is then diluted in water so as to obtain the desired active material concentration. Wheat plants (Audace variety) in starter cups, sown on 50/50 peat soil-pozzulana substrate and grown at 12° C., are treated at the 1-leaf stage (10 cm tall) by spraying with the aqueous suspension described above. Plants, used as controls, are treated with an aqueous solution not containing the active material. After 24 hours, the plants are contaminated by dusting them with Erisyphe graminis f. sp. tritici spores, the dusting being carried out using diseased plants.
# Drechslera teres = experiment: In vivo test on Drechslera teres (barley net blotch), preventive spray; settings: Pyrenophora teres, 288 h; dose of 500 g/ha; barley plants (Express variety); contaminated 24 hours after treatment; grading 12 days after contamination vs control plants; read-out: good (at least 50%) protection
# Experimental: (§1) An aqueous suspension, at a concentration of 1.5%, of the active material. tested is obtained by grinding it finely in a formulation of concentrated suspension type. This aqueous suspension is then diluted in water so as to obtain the desired active material concentration. Barley plants (Express variety) in starter cups, sown on a 50/50 peat soil-pozzolana substrate and grown at 12° C., are treated at the 1-leaf stage (10 cm tall) by spraying with the aqueous suspension described above. Plants, used as controls, are treated with an aqueous solution not containing the active material.
# After 24 hours, the plants are contaminated by spraying them with an aqueous suspension of Dreschslera teres spores (12,000 spores per mL). The spores are collected from a 12-day-old culture. The contaminated wheat plants are incubated for 24 hours at about 20° C. and at 100% relative humidity, and then for 12 days at 80% relative humidity.
# Grading is carried out 12 days after the contamination, in comparison with the control plants. Under these conditions, good (at least 50%) protection is observed, at a dose of 500 g/ha, with the compounds described as example: 9, 13, 14, 15, 18, 20, 21, 22, 24, 26, 27, 30, 31, 32, 33, 34, 35, 36, 37, 41, 43, 45, 47, 49, 62, 69, 70, 72.
# Septoria tritici = experiment: In vivo test on Septoria tritici (leaf spot of wheat), preventive spray; settings: Zymoseptoria tritici; dose of 500 g/ha; wheat plants (Scipion variety); contaminated 24 hours after treatment; grading 15 to 20 days after contamination vs control plants; read-out: good (at least 50%) protection
# Experimental: as §1, with “the active material tested is” for “the active material. tested is”, “material concentration. Wheat plants (Scipion” for “material concentration. Barley plants (Express”, “Wheat plants (Scipion variety) in” for “Barley plants (Express variety) in”
# After 24 hours, the plants are contaminated by spraying them with an aqueous suspension of Septoria tritici spores (500,000 spores per mL). The spores are collected from a 15-day-old culture and are suspended in a nutrient solution composed of: • 1.5 g/L of gelatine • 0.5 g/L of sodium oleate • 24 g/L of PDB
# The contaminated wheat plants are incubated for 72 hours at about 20° C. and at 100% relative humidity, and then for 15 days at 80% relative humidity.
# Puccinia recondita = experiment: In vivo test on Puccinia recondita (wheat brown rust), preventive spray; settings: 240 h, dose of 500 g/ha, wheat plants (Scipion variety), contaminated 24 hours after treatment, grading 10 days after contamination vs control plants, read-out: good (at least 50%) protection
# Experimental: An aqueous suspension, at a concentration of 1.5%, of the active material tested is obtained by grinding it finely in a formulation of concentrated suspension type, This aqueous suspension is then diluted in water so as to obtain the desired active material concentration. Wheat plants (Scipion variety) in starter cups, sown on a 50/50 peat soil-pozzolana substrate and grown at 12° C., are treated at the 1-leaf stage (10 cm tall) by spraying with the aqueous suspension described above. Plants, used as controls, are treated with an aqueous solution not containing the active material.
# After 24 hours, the plants are contaminated by spraying them with an aqueous suspension of Puccinia recondita spores (150,000 spores per mL). The contaminated wheat plants are incubated for 24 hours at about 20° C. and at 100% relative humidity, and then for 10 days at 70% relative humidity.
# Grading is carried out 10 days after the contamination, in comparison with the control plants. Under these conditions, good (at least 50%) protection is observed, at a dose of 500 g/ha, with the following compounds described as example: 6, 10, 11, 12, 13, 14, 15, 28, 29, 30, 31, 34, 37, 42, 45, 46, 50, 51, 52, 62, 72.
# Rhynchosporium secalis = experiment: In vivo test on Rhynchosporium secalis (barley leaf scald), preventive spray; settings: dose of 500 g/ha; barley plants (Express or Barrack variety); contaminated 24 hours after treatment; grading 12/14 days after contamination vs control plants
# Experimental: as §1, with “the active material tested is” for “the active material. tested is”, “plants (Express or Barrack variety) in” for “plants (Express variety) in”
# After 24 hours, the plants are contaminated by spraying them with an aqueous suspension of Rhynchosporium secalis spores (800,000 spores per mL). The contaminated wheat plants are incubated for 48 hours at about 20° C. and at 100% relative humidity, and then for 12/14 days at 80% relative humidity.
# Grading is carried out 12/14 days after the contamination, in comparison with the control plants. Under these conditions, good (at least 50%) protection is observed, at a dose of 500 g/ha, with the following compound described as example: 32.
SMILES,pest or weed control at 500 g/ha [1] [%],pest or weed control at 500 g/ha (Drechslera teres) [%],pest or weed control at 500 g/ha (Septoria tritici) [%],pest or weed control at 500 g/ha (Puccinia recondita) [%],good (at least 50%) protection (Rhynchosporium secalis),melting point [°C]
"C=CCOC(=O)Nc1cn(C)c(C(=O)Nc2ccc(Oc3ccc(C(F)(F)F)cc3)cc2)c1OC [compound 5, 1-Methyl-4-[(allyloxycarbonyl)amino]-3-methoxy-1H—N-para-[4-(trifluoromethyl)phenoxy]phenyl-pyrrole-2-carboxamide]",≥ 50,–,–,–,–,–
"CCCCOc1ccc(NC(=O)c2c(O)c(N)cn2C)cc1 [compound 9, 1-Methyl-4-amino-3-hydroxy-1H-N-(4-butoxy-phenyl)pyrrole-2-carboxamide]",–,≥ 50,≥ 50,–,–,–
"CCOC(=O)c1c(OC)c(C(=O)Nc2ccc(Oc3ccc(C(F)(F)F)cc3)cc2)cn1C [compound 12, 1-methyl-2-ethoxycarbonyl-3-methoxy-1H-N-para-[4-(trifluoromethyl)phenoxy]phenyl-pyrrole-4-carboxamide]",≥ 50,–,–,≥ 50,–,–
"COc1c(C(=O)Nc2ccc(Oc3ccc(C(F)(F)F)cc3)cc2)cn(C)c1C(=O)O [compound 13, 1-methyl-2-hydroxycarbonyl-3-methoxy-1H-N-para-[4-(trifluoromethyl)phyenoxy]phenyl-pyrrole-4-carboxamide]",≥ 50,≥ 50,–,≥ 50,–,–
"COc1c(C(=O)Nc2ccc(Oc3ccc(C(F)(F)F)cc3)cc2)cn(C)c1N [compound 14, 1-methyl-2-amino-3-methoxy-1H-N-para-[4-(trifluoromethyl)phenoxy]phenyl-pyrrole-4-carboxamide]",≥ 50,≥ 50,–,≥ 50,–,–
"CCOC(=O)c1c(O)c(C(=O)Nc2ccc(Oc3ccc(C(F)(F)F)cc3)cc2)cn1C [compound 15, 1-methyl-2-ethoxycarbonyl-3-hydroxy-1H-N-para-[4-(trifluoromethyl)phenoxy]phenyl-pyrrole-4-carboxamide]",≥ 50,≥ 50,≥ 50,≥ 50,–,–
"Nc1nccc(C(=O)Nc2ccc(Oc3ccc(C(F)(F)F)cc3)cc2)c1O [compound 19, [4-(Trifluoromethyl)phenoxy]anilino-(2-amino-3-hydroxy)pyridyl-4-carboxamide]",≥ 50,–,–,–,–,–
COC(=O)Nc1noc(C(=O)Nc2ccc(Oc3ccc(C(F)(F)F)cc3)cc2)c1OC [compound 28],≥ 50,–,–,≥ 50,–,–
"Nc1noc(C(=O)Nc2ccc(Oc3ccc(C(F)(F)F)cc3)cc2)c1O [compound 32, 3-Amino4-hydroxy-N-para-[4-(trifluoromethyl)phenoxy]phenylisoxazole-5-carboxamide]",≥ 50,≥ 50,≥ 50,–,at least 50%,–
COC(=O)c1onc(C(=O)Nc2ccc(Oc3ccc(C(F)(F)F)cc3)cc2)c1OC [compound 39],–,–,≥ 50,–,–,–
"Nc1cc(C(=O)Nc2ccc(Oc3ccc(C(F)(F)F)cc3)cc2)ns1 [compound 42, 5-Amino-N-para-[4-(trifluoromethyl)phenoxy]phenyl-isothiazole-3-carboxamide]",≥ 50,–,≥ 50,≥ 50,–,–
"Cn1nc(C(=O)Nc2ccc(Oc3cccc(C(F)(F)F)c3)cc2)c(O)c1N [compound 44, 1-Methyl-4-hydroxy-5-amino-N-para-[3-(trifluoromethyl)phenoxy]phenyl pyrazole-3-carboxamide]",≥ 50,–,–,–,–,–
"Nc1cncc(C(=O)Nc2ccc(Oc3cccc(C(F)(F)F)c3)cc2)c1O [compound 45, 5-amino-4-hydroxy-N-para-[3-(trifluoromethyl)phenoxy]phenyl nicotinamide]",≥ 50,≥ 50,≥ 50,≥ 50,–,–
"COC(=O)c1cncc(C(=O)Nc2ccc(Oc3ccc(C(F)(F)F)c(Cl)c3)cc2)c1OC [compound 49, 5-methoxycarbonyl-4-methoxy-N-para-[3-chloro-4-(trifluoromethyl)phenoxy]phenyl nicotinamide]",≥ 50,≥ 50,≥ 50,–,–,–
"COc1c(C(N)=O)cncc1C(=O)Nc1ccc(Oc2ccc(C(F)(F)F)c(Cl)c2)cc1 [compound 50, 5-aminocarbonyl-4-methoxy-N-para-[3-chloro-4-(trifluoromethyl)phenoxy]phenyl nicotinamide]",–,–,≥ 50,≥ 50,–,–
"Cc1nc(C)c(-n2cccc2)c(O)c1C(=O)Nc1ccc(OC(F)(F)C(F)F)cc1 [compound 55, 2,6-dimethyl-5-pyrrol-1-yl-4-hydroxy-N-para-(1,1,2,2 tetrafluoroethoxy)phenyl nicotinamide]",≥ 50,–,–,–,–,–
"CCCCOc1ccc(NC(=O)c2occc(=O)c2O)cc1 [compound 59, N-(4-Butyloxy-phenyl)-2-(3-hydroxy-γ-pyranone)-carboxamide]",≥ 50,–,≥ 50,–,–,203 to 204
"CC(C)N1CC(C(=O)Nc2ccc(Oc3ccccc3)cc2)=C(O)C1=O [compound 72, N-4-(phenoxy)phenyl-(1-N-isopropyl-4-hydroxy-5-dioxo-2,5-dihydro-1H)-pyrrol-3-carboxamide]",–,≥ 50,≥ 50,≥ 50,–,–
"CC(C)N1CC(C(=O)Nc2ccc(Oc3ccc(C(F)(F)F)cc3)cc2)=C(O)C1=O [compound 73, N-(4-(4-Trifluormethyl)phenoxy)phenyl-[(1-isopropyl-4-hydroxy-5-dioxo-2,5-dihydro-1H)-pyrrol]-3-carboxamide]",≥ 50,–,–,–,–,–
